# In US6930104B2, “Heterocyclic derivatives” (Takeda Chemical Industries, Ltd., priority 2001, dated 2005):
row,melting point [°C],Structure (SMILES)
1,155 to 157,COc1ccc(C(=O)N2CCC(N3CC4(CCN(Cc5ccccc5)CC4)c4ccccc43)c3ccccc32)cc1OC (stereo not drawn)
2,164 to 165,"COc1ccc(C(=O)N2c3ccccc3C(N3CCCc4cc(OCc5ccccc5)ccc43)CC2C)cc1OC (stereo not drawn) (hydrate or solvate) [Example 101, 2,4-cis-4-(6-Benzyloxy-1,2,3,4-tetrahydroquinolin-1-yl)-1-(3,4-dimethoxybenzoyl)-2-methyl-1,2,3,4-tetrahydroquinoline]"
3,140 to 142,"CCOc1ccc(C(=O)N2c3ccccc3C(N3CCCc4ccccc43)CC2C)cc1OC (stereo not drawn) (hydrate or solvate) [Example 103, 1-(4-Ethoxy-3-methoxybenzoyl)-2-methyl-4-(1,2,3,4-tetrahydroquinolin-1-yl)-1,2,3,4-tetrahydroquinoline]"
4,214 to 215,"CCOc1ccc(C(=O)N2c3ccccc3C(n3c4ccccc4c4ccccc43)CC2C)cc1OC (stereo not drawn) (hydrate or solvate) [Example 143, 2,4-cis-4-(9H-9-Carbazolyl)-1-(4-ethoxy-3-methoxybenzoyl)-2-methyl-1,2,3,4-tetrahydroquinoline]"
5,240 to 241,"CCOc1ccc(C(=O)N2c3ccccc3C(n3c4ccccc4c4ccccc43)CC2C)cc1OCC (stereo not drawn) (hydrate or solvate) [Example 144, 2,4-cis-4-(9H-9-Carbazolyl)-1-(3,4-diethoxybenzoyl)-2-methyl-1,2,3,4-tetrahydroquinoline]"
6,220,"CCCC1CC(n2c3ccccc3c3ccccc32)c2ccccc2N1C(=O)c1ccc(OCC)c(OCC)c1 (stereo not drawn) (hydrate or solvate) [Example 147, 2,4-cis-4-(9H-9-Carbazolyl)-1-(3,4-diethoxybenzoyl)-2-propyl-1,2,3,4-tetrahydroquinoline]"
7,194 to 195,"COc1ccc(C(=O)N2c3ccccc3C(n3c4ccccc4c4ccccc43)C(O)C2C)cc1OC (stereo not drawn) (hydrate or solvate) [Example 162, 4-(9H-9-Carbazolyl)-1-(3,4-dimethoxybenzoyl)-3-hydroxy-2-methyl-1,2,3,4-tetrahydroquinoline]"
8,178 to 180,"COc1ccc(C(=O)N2c3ccccc3C(N3CCSc4ccccc43)CC2C)cc1OC (racemic) [Example 20, 2,4-cis-4-(3,4-Dihydro-2H-1,4-benzothiazin-4-yl)-1-(3,4-dimethoxybenzoyl)-2-methyl-1,2,3,4-tetrahydroquinoline]"
9,121 to 123,"COc1ccc(C(=O)N2CCC(N3CCc4ccccc43)c3ccccc32)cc1OC (stereo not drawn) [Example 2, 4-(2,3-Dihydro-1H-indol-1-yl)-1-(3,4-dimethoxybenzoyl)-1,2,3,4-tetrahydroquinoline]"
10,213,"CCCCC1CC(n2c3ccccc3c3ccccc32)c2ccccc2N1C(=O)c1ccc(OC)c(OC)c1 (stereo not drawn) [Example 40, 2,4-cis-2-Butyl-4-(9H-9-carbazolyl)-1-(3,4-dimethoxybenzoyl)-1,2,3,4-tetrahydroquinoline]"
11,191 to 193,"COc1ccc(C(=O)N2c3ccccc3C(n3c4ccccc4c4ccccc43)CC2CC(C)C)cc1OC (stereo not drawn) [Example 41, 2,4-cis-4-(9H-9-Carbazolyl)-1-(3,4-dimethoxybenzoyl)-2-isobutyl-1,2,3,4-tetrahydroquinoline]"
12,203 to 204,"COc1ccc(C(=O)N2c3ccccc3C(n3c4ccccc4c4ccccc43)CC2COCc2ccccc2)cc1OC (stereo not drawn) [Example 43, 2-[(Benzyloxy)methyl]-4-(9H-9-carbazolyl)-1-(3,4-dimethoxybenzoyl)-1,2,3,4-tetrahydroquinoline]"
13,174 to 175,"CCCCC1C=C(n2c3ccccc3c3ccccc32)c2ccccc2N1C(=O)c1ccc(OC)c(OC)c1 (stereo not drawn) [Example 59, 2-Butyl-4-(9H-9-carbazolyl)-1-(3,4-dimethoxybenzoyl)-1,2-dihydroquinoline]"
14,147 to 148,"COc1ccc(C(=O)N2c3ccccc3C(N3CCc4ccccc43)CC2C)cc1OC (stereo not drawn) [Example 61, 4-(2,3-Dihydro-1H-indol-1-yl)-1-(3,4-dimethoxybenzoyl)-2-methyl-1,2,3,4-tetrahydroquinoline]"
15,113 to 114,"COc1ccc(C(=O)N2c3ccccc3C(N3CCSc4ccccc43)CC2C)cc1OC (stereo not drawn) [Example 72, 4-[1-(3,4-Dimethoxybenzoyl)-2-methyl-1,2,3,4-tetrahydroquinolin-4-yl]-3,4-dihydro-2H-1,4-benzothiazine]"
16,128 to 129,"COc1ccc(C(=O)N2c3ccccc3C(N3CCc4ccccc4C3)CC2C)cc1OC (stereo not drawn) [Example 73, 1-(3,4-Dimethoxybenzoyl)-2-methyl-4-(1,2,3,4-tetrahydroisoquinolin-2-yl)-1,2,3,4-tetrahydroquinoline]"
17,176 to 177,"CCCC1CC(N2CCCc3ccccc32)c2ccccc2N1C(=O)c1ccc(OC)c(OC)c1 (stereo not drawn) [Example 75, 2,4-cis-1-(3,4-Dimethoxybenzoyl)-2-propyl-4-(1,2,3,4-tetrahydroquinolin-1-yl)-1,2,3,4-tetrahydroquinoline]"
18,200 to 202,"CCCCC1C(O)C(N2CCCc3ccccc32)c2ccccc2N1C(=O)c1ccc(OC)c(OC)c1 (stereo not drawn) [Example 76, 2,3-trans-2,4-cis-2-Butyl-1-(3,4-dimethoxybenzoyl)-3-hydroxy-4-(1,2,3,4-tetrahydroquinolin-1-yl)-1,2,3,4-tetrahydroquinoline]"
19,159 to 160,"CCCCC1CC(N2CCCc3ccccc32)c2ccccc2N1C(=O)c1ccc(OC)c(OC)c1 (stereo not drawn) [Example 77, 2,4-cis-2-Butyl-1-(3,4-dimethoxybenzoyl)-4-(1,2,3,4-tetrahydroquinolin-1-yl)-1,2,3,4-tetrahydroquinoline]"
20,197 to 198,"COc1ccc(C(=O)N2c3ccccc3C(N3CCCc4ccc(C)cc43)CC2C)cc1OC (stereo not drawn) [Example 81, 2,4-cis-1-(3,4-Dimethoxybenzoyl)-2-methyl-4-(7-methyl-1,2,3,4-tetrahydroquinolin-1-yl)-1,2,3,4-tetrahydroquinoline]"
21,184 to 185,"COc1ccc(C(=O)N2c3ccccc3C(N3CCCc4cc(C)ccc43)CC2C)cc1OC (stereo not drawn) [Example 83, 2,4-cis-1-(3,4-Dimethoxybenzoyl)-2-methyl-4-(6-methyl-1,2,3,4-tetrahydroquinolin-1-yl)-1,2,3,4-tetrahydroquinoline]"
22,165 to 166,"COc1ccc(C(=O)N2c3ccccc3C(N3CCCc4cc(C(C)C)ccc43)C(O)C2C)cc1OC (stereo not drawn) [Example 84, 2,3-trans-2,4-cis-1-(3,4-Dimethoxybenzoyl)-3-hydroxy-4-(6-isopropyl-1,2,3,4-tetrahydroquinolin-1-yl)-2-methyl-1,2,3,4-tetrahydroquinoline]"
23,187 to 188,"COc1ccc(C(=O)N2c3ccccc3C(N3CCCc4cc(C(C)C)ccc43)CC2C)cc1OC (stereo not drawn) [Example 85, 2,4-cis-4-(6-Isopropyl-1,2,3,4-tetrahydroquinolin-1-yl)-1-(3,4-dimethoxybenzoyl)-2-methyl-1,2,3,4-tetrahydroquinoline]"

row,Structure (SMILES),melting point [°C]
1,"COc1ccc(C(=O)N2c3ccccc3C(N3CCCc4ccccc43)C(OC(C)=O)C2C)cc1OC (racemic) [Example 17, 2,3-trans-2,4-cis-3-Acetoxy-1-(3,4-dimethoxybenzoyl)-2-methyl-4-(1,2,3,4-tetrahydroquinolin-1-yl)-1,2,3,4-tetrahydroquinoline]",130 to 131
